ChEMBL document CHEMBL3217594, “Structureactivity relationships of methyl-lysine reader antagonists” (Medchemcomm, 2012)
Activity calls are given as the source filed them. No cut-off for these calls is given here.

How the values were obtained:
[1] = target: T1, Chromobox protein homolog 7 (Homo sapiens, UniProt O95931); assay: Antagonist activity at Flag-tagged CBX7 (unknown origin) assessed as inhibition of CBX7/biotinylated H3K9Me3 peptide interaction after 30 mins by AlphaScreen assay
T1 sequence (O95931 whole entry): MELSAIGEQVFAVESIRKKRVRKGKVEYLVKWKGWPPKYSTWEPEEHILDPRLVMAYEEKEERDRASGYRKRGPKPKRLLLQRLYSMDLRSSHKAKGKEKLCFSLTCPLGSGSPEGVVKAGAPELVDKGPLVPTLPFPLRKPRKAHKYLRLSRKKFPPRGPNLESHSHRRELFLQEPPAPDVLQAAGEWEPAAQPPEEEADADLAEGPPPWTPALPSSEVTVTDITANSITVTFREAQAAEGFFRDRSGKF

[2] = target: T2, Chromobox protein homolog 7 (Homo sapiens) (UniProt O95931); assay: Antagonist activity at Flag-tagged CBX7 (unknown origin) assessed as inhibition of CBX7/biotinylated H3K9Me3 peptide interaction at 30 uM after 30 mins by AlphaScreen assay
T2 sequence (whole entry): T1 sequence (O95931 whole entry)

[3] = target: T3, Lethal(3)malignant brain tumor-like protein 3 (Homo sapiens, UniProt Q96JM7); assay: Antagonist activity at His-tagged L3MBTL3 (unknown origin) assessed as inhibition of L3MBTL3/biotinylated H4K20Me2 peptide interaction after 30 mins by AlphaScreen assay
T3 sequence (Q96JM7 whole entry): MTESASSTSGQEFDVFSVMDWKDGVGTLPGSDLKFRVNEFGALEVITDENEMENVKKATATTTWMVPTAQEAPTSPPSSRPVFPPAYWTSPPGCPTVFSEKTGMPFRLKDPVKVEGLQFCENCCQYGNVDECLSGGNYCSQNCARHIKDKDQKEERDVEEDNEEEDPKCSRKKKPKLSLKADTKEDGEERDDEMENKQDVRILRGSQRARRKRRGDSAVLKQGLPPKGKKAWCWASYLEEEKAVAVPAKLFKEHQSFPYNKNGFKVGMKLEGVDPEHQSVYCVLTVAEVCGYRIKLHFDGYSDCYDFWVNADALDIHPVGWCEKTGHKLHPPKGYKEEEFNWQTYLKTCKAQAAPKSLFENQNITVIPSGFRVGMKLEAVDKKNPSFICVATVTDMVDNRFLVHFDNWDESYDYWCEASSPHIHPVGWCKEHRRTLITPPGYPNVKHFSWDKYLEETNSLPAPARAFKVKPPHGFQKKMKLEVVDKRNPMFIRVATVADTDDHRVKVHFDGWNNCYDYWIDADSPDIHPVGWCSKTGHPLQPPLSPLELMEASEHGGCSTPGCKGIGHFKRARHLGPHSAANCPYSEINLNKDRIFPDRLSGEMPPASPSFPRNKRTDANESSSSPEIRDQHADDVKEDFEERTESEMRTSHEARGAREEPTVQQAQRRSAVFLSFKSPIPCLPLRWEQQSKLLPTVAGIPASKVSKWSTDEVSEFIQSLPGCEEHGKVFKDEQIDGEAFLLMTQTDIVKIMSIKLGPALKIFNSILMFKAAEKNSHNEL

[4] = target: T4, Lethal(3)malignant brain tumor-like protein 4 (Homo sapiens, UniProt Q8NA19); assay: Antagonist activity at L3MBTL4 (unknown origin) assessed as inhibition of L3MBTL4/biotinylated H2AK36Me1 peptide interaction after 30 mins by AlphaScreen assay
T4 sequence (Q8NA19 whole entry): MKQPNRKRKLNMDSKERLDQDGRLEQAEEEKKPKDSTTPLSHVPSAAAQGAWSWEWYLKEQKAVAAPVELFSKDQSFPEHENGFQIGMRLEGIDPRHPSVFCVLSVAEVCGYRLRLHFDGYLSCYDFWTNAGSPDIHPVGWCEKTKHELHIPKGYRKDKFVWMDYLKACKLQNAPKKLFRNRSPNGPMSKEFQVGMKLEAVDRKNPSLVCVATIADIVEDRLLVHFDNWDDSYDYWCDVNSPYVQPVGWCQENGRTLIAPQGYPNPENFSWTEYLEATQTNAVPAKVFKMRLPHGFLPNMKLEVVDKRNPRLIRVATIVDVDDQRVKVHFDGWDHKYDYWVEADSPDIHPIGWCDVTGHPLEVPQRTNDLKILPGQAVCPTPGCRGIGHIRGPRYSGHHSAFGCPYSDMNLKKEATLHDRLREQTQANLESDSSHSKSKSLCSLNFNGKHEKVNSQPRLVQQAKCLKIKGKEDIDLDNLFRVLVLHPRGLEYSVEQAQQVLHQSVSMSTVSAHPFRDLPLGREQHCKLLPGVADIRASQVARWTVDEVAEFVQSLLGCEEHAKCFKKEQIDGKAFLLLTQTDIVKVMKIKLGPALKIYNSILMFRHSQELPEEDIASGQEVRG

[5] = target: T5, Lethal(3)malignant brain tumor-like protein 4 (Homo sapiens) (UniProt Q8NA19); assay: Antagonist activity at L3MBTL4 (unknown origin) assessed as inhibition of L3MBTL4/biotinylated H2AK36Me1 peptide interaction at 30 uM after 30 mins by AlphaScreen assay
T5 sequence (whole entry): T4 sequence (Q8NA19 whole entry)

[6] = target: T6, MBT domain-containing protein 1 (Homo sapiens, UniProt Q05BQ5); assay: Antagonist activity at MBTD1 (unknown origin) assessed as inhibition of MBTD1/biotinylated H4K20Me1 peptide interaction after 30 mins by AlphaScreen assay
[7] = target: T6, MBT domain-containing protein 1; assay: Antagonist activity at MBTD1 (unknown origin) assessed as inhibition of MBTD1/biotinylated H4K20Me1 peptide interaction at 30 uM after 30 mins by AlphaScreen assay
[8] = target: T7, Scm-like with four MBT domains protein 1 (Homo sapiens, UniProt Q9UHJ3); assay: Antagonist activity at SFMBT1 (unknown origin) assessed as inhibition of SFMBT1/biotinylated H3K9Me1 peptide interaction after 30 mins by AlphaScreen assay
T7 sequence (Q9UHJ3 whole entry): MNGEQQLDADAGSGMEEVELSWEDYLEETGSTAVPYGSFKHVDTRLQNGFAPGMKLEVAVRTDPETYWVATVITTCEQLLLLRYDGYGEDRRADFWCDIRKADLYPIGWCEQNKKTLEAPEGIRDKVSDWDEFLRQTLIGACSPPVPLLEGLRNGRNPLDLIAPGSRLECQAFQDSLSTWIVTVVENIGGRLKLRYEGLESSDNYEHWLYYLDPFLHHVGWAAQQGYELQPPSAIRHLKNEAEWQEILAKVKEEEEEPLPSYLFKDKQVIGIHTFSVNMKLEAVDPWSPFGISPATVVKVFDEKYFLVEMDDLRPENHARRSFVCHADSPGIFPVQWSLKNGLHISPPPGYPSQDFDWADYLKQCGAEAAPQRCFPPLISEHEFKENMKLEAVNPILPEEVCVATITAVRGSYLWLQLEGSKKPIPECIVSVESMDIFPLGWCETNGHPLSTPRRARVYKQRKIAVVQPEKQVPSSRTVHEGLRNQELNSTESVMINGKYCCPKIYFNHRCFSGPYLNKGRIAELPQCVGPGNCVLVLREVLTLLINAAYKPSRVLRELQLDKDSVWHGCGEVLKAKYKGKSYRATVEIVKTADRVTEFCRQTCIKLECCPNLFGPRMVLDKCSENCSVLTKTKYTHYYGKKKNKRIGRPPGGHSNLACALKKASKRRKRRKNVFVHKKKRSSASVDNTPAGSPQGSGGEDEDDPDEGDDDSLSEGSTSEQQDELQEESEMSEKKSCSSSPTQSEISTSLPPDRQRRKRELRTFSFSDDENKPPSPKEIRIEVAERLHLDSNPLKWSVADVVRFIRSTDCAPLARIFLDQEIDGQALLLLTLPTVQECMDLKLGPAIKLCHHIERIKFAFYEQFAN

[9] = target: T8, Scm-like with four MBT domains protein 1 (Homo sapiens) (UniProt Q9UHJ3); assay: Antagonist activity at SFMBT1 (unknown origin) assessed as inhibition of SFMBT1/biotinylated H3K9Me1 peptide interaction at 30 uM after 30 mins by AlphaScreen assay
T8 sequence (whole entry): T7 sequence (Q9UHJ3 whole entry)

T6 sequence (Q05BQ5 whole entry, the tested form may be a part): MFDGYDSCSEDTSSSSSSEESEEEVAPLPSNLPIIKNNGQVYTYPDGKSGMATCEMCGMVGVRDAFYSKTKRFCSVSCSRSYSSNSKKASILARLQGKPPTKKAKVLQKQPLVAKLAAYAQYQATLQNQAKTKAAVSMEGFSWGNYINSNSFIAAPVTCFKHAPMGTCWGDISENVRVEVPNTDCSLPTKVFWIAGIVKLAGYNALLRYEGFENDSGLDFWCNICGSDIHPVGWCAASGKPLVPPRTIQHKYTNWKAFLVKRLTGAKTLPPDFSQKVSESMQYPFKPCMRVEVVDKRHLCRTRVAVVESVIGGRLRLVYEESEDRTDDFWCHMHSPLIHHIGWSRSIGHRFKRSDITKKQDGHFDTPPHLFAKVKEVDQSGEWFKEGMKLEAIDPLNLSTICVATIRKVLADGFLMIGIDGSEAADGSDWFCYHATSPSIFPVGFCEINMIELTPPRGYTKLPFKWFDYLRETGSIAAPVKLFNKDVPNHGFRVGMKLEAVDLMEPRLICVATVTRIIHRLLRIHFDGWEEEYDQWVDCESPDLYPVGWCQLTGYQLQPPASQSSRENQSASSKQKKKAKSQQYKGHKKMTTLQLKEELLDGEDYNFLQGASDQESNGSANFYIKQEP

Row | IC50 [1] | inhibition [2] | IC50 [6] | inhibition [7] | IC50 [8] | inhibition [9] | Structure (SMILES) | IC50 [3] | IC50 [4] | inhibition [5]
1 | > 30 µM | 9% | > 30 µM | 23% | > 30 µM | inactive | O=C(c1cncc(Br)c1)N1CCC(N2CCCC2)CC1 | 4.8 µM | > 30 µM | 41%
2 | > 30 µM | 13% | 15.2 µM |  | > 30 µM | inactive | O=C(c1cccc(Br)c1)N1CCCC(N2CCCC2)CC1 (stereo not given) | 6.7 µM | > 30 µM | 28%
3 | > 30 µM | inactive | > 30 µM | 21% | > 30 µM | inactive | CNC(=O)c1cccc(C(=O)N2CCC(N3CCCC3)CC2)c1 | 6.4 µM | > 30 µM | 32%
4 | > 30 µM | inactive | > 30 µM | 24% | > 30 µM | inactive | O=C(c1ccc(Br)cc1)N1CCC(N2CCCC2)CC1 | 4.1 µM | > 30 µM | 30%
5 | > 30 µM | inactive | > 30 µM | 36% | > 30 µM | inactive | c1ccc(C(c2ccccc2)N2CCC(N3CCCC3)CC2)cc1 | 2.4 µM | > 30 µM | 17%
6 | > 30 µM | 17% | > 30 µM | 31% | > 30 µM | inactive | O=C(c1ccccc1Br)N1CCC(N2CCCC2)CC1 | 6.8 µM | > 30 µM | 29%
7 | > 30 µM | 18% | > 30 µM | 24% | > 30 µM | inactive | O=C(c1cccc(Br)c1)N1CCC(N2CC=CC2)CC1 | 8.7 µM | > 30 µM | 28%
8 | > 30 µM | inactive | > 30 µM | 22% | > 30 µM | inactive | O=C(c1ccccc1)N1CCC(N2CCCC2)CC1 | 6.2 µM | > 30 µM | 40%
9 | > 30 µM | inactive | > 30 µM | 31% | > 30 µM | inactive | O=C(c1cccc(Br)c1)N1CC2CCC(C1)C2N1CCCC1 (stereo not given) | 3.6 µM | > 30 µM | 16%
